The target of experiment [1] is pKSI (ketosteroid isomerase from Pseudomonas putida) (Pseudomonas putida, UniProt P07445, D40A). Description: intrinsic fluorescence quenching. The class given is binding.
Experiment [2] concerns the target tKSI (ketosteroid isomerase from Comamonas testosteroni) (Comamonas testosteroni, UniProt P00947). Description: intrinsic fluorescence quenching. Type of experiment: binding.
Experiment [3] concerns the target pKSI (ketosteroid isomerase from Pseudomonas putida) (Pseudomonas putida, UniProt P07445). Description: intrinsic fluorescence quenching. The class given is binding.
For experiment [4], the target named is tKSI (ketosteroid isomerase from Comamonas testosteroni) (Comamonas testosteroni, UniProt P00947, D38A). Description: intrinsic fluorescence quenching. The class given is binding.
In experiment [5] the target is pKSI (ketosteroid isomerase from Pseudomonas putida) (Pseudomonas putida, UniProt P07445, D40N). Kind of experiment: biochemical.
The target in experiment [6] is tKSI (ketosteroid isomerase from Comamonas testosteroni) (Comamonas testosteroni, UniProt P00947, D38N). Description: biochemical.

Molecules are shown by their SMILES.

pKSI (ketosteroid isomerase from Pseudomonas putida) (Pseudomonas putida, UniProt P07445, D40N), sequence (P07445 whole entry D40N): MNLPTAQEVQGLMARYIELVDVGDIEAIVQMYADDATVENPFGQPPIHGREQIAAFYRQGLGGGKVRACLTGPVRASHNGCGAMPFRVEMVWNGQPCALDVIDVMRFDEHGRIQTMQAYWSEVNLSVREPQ
tKSI (ketosteroid isomerase from Comamonas testosteroni) (Comamonas testosteroni, UniProt P00947), sequence (P00947 whole entry): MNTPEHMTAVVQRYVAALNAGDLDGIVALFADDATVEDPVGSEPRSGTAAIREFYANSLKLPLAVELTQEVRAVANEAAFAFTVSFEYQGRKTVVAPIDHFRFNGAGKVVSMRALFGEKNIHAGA
pKSI (ketosteroid isomerase from Pseudomonas putida) (Pseudomonas putida, UniProt P07445), sequence (P07445 whole entry): as the sequence (P07445 whole entry D40N) above, with N40D counted along it
pKSI (ketosteroid isomerase from Pseudomonas putida) (Pseudomonas putida, UniProt P07445, D40A), sequence (P07445 whole entry D40A): as the sequence (P07445 whole entry D40N) above, with N40A counted along it
tKSI (ketosteroid isomerase from Comamonas testosteroni) (Comamonas testosteroni, UniProt P00947, D38A), sequence (P00947 whole entry D38A): as the sequence (P00947 whole entry) above, with D38A counted along it
tKSI (ketosteroid isomerase from Comamonas testosteroni) (Comamonas testosteroni, UniProt P00947, D38N), sequence (P00947 whole entry D38N): as the sequence (P00947 whole entry) above, with D38N counted along it

Take `C[C@]12CCC(=O)C=C1CC[C@@H]1[C@@H]2CC[C@]2(C)C(=O)CC[C@@H]12` [4-androstene-3,17-dione]: the Kd in experiment [1] is 385 nM; in experiment [2], 62.5 µM; in experiment [3], 62.5 µM; in experiment [4], 909 nM; in experiment [5] it was 1330 nM; in experiment [6], 15.9 µM.

For the origin of these results see article PMC3651043 (Biochemistry, 2013).
